Data from patent US20150297619A1, “METHODS AND COMPOSITIONS FOR PRESERVING THE MUCOSAL BARRIER” (priority 2014, published 2015).

Key:
20 kDa serine proteases = assay: Gelatin gel zymography of pre-ischemic intestinal homogenates renatured with inhibitor: serine protease bands; assay type: biochemical, rat; details: inhibitor in renaturing and developing buffer: tranexamic acid 20 mM, doxycycline 1 mg/ml, GM-6001 1 ug/ml
Procedure: Gelatin Gel Zymography—Segments 2 and 7 from pre-ischemic intestines were homogenized (0.1 g tissue/ml homogenization buffer; PBS pH 7.4 with 0.5% hexadecyltrimethyl bromide) and centrifuged at 1.4×10^4 g for 20 minutes. Supernatants were stored at −80° C. until samples were processed.
To assess the proteolytic activities of individual proteases in intestinal tissue samples, sample volumes of 1 μl (with 2 μg of protein) were separated by gel electrophoresis in SDS-PAGE gels containing 80 μg/ml gelatin. […] The molecular weights of the proteases were estimated by use of a standard protein ladder (Invitrogen). Gels were digitized and bands were analyzed by densitometry in ImageJ (rsbweb.nih.gov/ij/).
These gels were compared to a concurrently run gel processed normally.

intestinal villi cells = assay: TUNEL labeling of ischemic intestine (apoptosis); set-up: species or system rat; details: after 2 hrs ex vivo ischemia
Excerpt: To assess the level of apoptosis after ischemia, in situ terminal transferase dUTP nick end labeling (TUNEL) labeling was completed using a kit (Trevigen, Gaithersburg, Md.) according to manufacturer's instructions. Sections were counterstained with 0.05% toluidine blue in 1% boric acid to contrast 3,3′-diaminobenzidine (DAB) positive nuclei (brown) from negatively stained nuclei (blue). Prior to mounting, all slides were dehydrated (70, 95, 100% ethanol) and cleaned with xylene. After air-drying overnight, sections were mounted using Hard Set Mounting Media (Vector Laboratories, Burlingame, Calif.). Digital images were captured with a 20× objective (numerical aperture 0.5) and digitally montaged together after background subtraction.

Compound | 20 kDa serine protease activity bands (20 kDa serine proteases) | apoptosis (TUNEL labeling) (intestinal villi cells)
NC[C@H]1CC[C@H](C(=O)O)CC1 [tranexamic acid] | no significant effect | –
O=C[C@H](O)[C@@H](O)[C@H](O)[C@H](O)CO [Glucose, glucose] | – | little apoptosis in the villi
